Measured values: ChEMBL document CHEMBL1155905, “Carbonic anhydrase inhibitors. Interaction of the antitumor sulfamate EMD 486019 with twelve mammalian carbonic anhydrase isoforms: Kinetic and X-ray crystallographic studies” (Bioorg Med Chem Lett, 2008)

Key:
Carbonic anhydrase 6 = Carbonic anhydrase 6 (Homo sapiens, UniProt P23280)
Description: Inhibition of human cloned CA6 by stopped-flow CO2 hydration method

Carbonic anhydrase 9 = Carbonic anhydrase 9 (Homo sapiens, UniProt Q16790)
Description: Inhibition of human cloned CA9 catalytic domain by stopped-flow CO2 hydration method

Carbonic anhydrase 7 = Carbonic anhydrase 7 (Homo sapiens, UniProt P43166); assay: Inhibition of human cloned CA7 by stopped-flow CO2 hydration method
Carbonic anhydrase 14 = Carbonic anhydrase 14 (Homo sapiens, UniProt Q9ULX7)
Carbonic anhydrase 1 = Carbonic anhydrase 1 (Homo sapiens, UniProt P00915)
Description: Inhibition of human cloned CA1 by stopped-flow CO2 hydration method

Carbonic anhydrase 3 = Carbonic anhydrase 3 (Homo sapiens, UniProt P07451)
Description: Inhibition of human cloned CA3 by stopped-flow CO2 hydration method

Carbonic anhydrase 12 = Carbonic anhydrase 12 (Homo sapiens, UniProt O43570)
Description: Inhibition of human cloned CA12 catalytic domain by stopped-flow CO2 hydration method

[1] = biological target: Carbonic anhydrase 5B, mitochondrial (Homo sapiens, UniProt Q9Y2D0)
[2] = biological target: Carbonic anhydrase 5A, mitochondrial (Homo sapiens, UniProt P35218)
Carbonic anhydrase 13 = Carbonic anhydrase 13 (Mus musculus, UniProt Q9D6N1)
Description: Inhibition of mouse CA13 by stopped-flow CO2 hydration method

Carbonic anhydrase 4 = Carbonic anhydrase 4 (Homo sapiens, UniProt P22748)
Carbonic anhydrase 4, sequence (P22748 whole entry): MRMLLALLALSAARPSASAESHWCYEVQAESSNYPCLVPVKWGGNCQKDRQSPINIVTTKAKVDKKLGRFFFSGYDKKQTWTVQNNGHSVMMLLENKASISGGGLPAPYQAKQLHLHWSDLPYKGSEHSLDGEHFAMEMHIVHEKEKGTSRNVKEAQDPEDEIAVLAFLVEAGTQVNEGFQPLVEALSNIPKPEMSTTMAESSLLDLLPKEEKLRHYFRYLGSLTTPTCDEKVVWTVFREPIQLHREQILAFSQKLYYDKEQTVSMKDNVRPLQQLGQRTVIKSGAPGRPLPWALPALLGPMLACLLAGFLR

Carbonic anhydrase 5A, mitochondrial, sequence (P35218 whole entry): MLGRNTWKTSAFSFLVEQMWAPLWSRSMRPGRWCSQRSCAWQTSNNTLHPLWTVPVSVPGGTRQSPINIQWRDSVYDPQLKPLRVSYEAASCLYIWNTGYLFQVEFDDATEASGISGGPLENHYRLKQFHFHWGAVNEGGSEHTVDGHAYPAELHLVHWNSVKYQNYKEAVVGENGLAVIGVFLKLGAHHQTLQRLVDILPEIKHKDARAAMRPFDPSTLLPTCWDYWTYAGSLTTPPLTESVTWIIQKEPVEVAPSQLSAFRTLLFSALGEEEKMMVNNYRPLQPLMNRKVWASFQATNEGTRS
Carbonic anhydrase 14, sequence (Q9ULX7 whole entry): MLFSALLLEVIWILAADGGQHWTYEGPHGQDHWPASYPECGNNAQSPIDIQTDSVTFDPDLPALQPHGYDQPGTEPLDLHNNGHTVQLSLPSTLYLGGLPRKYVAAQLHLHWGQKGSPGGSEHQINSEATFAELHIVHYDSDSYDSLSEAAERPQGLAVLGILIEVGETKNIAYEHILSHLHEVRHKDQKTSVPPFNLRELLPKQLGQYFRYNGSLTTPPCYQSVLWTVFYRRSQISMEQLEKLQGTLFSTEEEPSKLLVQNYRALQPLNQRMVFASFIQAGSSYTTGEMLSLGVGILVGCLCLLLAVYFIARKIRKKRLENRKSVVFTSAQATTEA
Carbonic anhydrase 3, sequence (P07451 whole entry): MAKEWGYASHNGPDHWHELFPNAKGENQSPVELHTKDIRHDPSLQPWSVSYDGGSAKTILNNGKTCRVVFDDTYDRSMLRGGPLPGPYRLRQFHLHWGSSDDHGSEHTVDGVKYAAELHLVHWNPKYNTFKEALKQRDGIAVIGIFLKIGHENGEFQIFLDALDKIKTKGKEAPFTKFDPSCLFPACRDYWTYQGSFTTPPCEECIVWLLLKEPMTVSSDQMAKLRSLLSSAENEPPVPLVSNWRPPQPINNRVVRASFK
Carbonic anhydrase 5B, mitochondrial, sequence (Q9Y2D0 whole entry): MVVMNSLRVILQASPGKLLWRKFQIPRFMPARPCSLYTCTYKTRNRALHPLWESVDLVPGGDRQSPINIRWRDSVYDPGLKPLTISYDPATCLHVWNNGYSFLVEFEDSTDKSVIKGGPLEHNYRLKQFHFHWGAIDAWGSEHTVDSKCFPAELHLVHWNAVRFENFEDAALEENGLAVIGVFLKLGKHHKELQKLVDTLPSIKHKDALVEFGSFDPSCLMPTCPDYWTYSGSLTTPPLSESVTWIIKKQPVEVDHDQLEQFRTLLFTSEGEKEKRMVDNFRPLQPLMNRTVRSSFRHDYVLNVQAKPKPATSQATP
Carbonic anhydrase 13, sequence (Q9D6N1 whole entry): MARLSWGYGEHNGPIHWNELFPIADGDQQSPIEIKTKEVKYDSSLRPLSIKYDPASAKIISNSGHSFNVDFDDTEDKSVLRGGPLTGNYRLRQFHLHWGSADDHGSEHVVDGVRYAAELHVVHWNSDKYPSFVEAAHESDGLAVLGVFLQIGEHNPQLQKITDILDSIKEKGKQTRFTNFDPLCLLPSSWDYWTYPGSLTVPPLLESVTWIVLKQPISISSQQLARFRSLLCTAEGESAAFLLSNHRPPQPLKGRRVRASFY
Carbonic anhydrase 6, sequence (P23280 whole entry): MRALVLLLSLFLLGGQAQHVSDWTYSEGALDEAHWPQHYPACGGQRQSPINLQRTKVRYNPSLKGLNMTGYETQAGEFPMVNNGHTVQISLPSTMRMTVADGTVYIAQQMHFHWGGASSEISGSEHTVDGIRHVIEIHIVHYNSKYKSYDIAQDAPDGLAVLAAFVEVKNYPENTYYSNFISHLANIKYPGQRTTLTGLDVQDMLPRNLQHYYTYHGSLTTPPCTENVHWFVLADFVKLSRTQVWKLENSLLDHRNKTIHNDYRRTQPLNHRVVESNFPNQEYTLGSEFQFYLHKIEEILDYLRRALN
Carbonic anhydrase 1, sequence (P00915 whole entry): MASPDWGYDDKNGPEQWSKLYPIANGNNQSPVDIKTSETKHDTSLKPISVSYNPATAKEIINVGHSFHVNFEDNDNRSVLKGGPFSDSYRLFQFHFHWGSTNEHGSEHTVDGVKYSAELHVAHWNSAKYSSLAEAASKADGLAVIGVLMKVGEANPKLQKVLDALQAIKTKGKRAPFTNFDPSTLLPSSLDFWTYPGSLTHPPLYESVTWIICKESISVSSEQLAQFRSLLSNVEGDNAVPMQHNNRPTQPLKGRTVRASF
Carbonic anhydrase 12, sequence (O43570 whole entry): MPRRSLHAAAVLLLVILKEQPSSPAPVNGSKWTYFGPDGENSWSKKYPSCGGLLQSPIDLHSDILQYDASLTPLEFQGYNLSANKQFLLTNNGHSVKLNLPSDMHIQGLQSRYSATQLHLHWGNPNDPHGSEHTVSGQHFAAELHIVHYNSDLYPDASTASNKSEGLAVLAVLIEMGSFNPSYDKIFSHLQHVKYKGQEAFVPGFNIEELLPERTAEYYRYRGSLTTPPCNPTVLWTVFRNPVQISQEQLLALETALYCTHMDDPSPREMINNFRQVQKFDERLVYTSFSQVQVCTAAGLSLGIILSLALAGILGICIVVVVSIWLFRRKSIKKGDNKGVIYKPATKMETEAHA
Carbonic anhydrase 7, sequence (P43166 whole entry): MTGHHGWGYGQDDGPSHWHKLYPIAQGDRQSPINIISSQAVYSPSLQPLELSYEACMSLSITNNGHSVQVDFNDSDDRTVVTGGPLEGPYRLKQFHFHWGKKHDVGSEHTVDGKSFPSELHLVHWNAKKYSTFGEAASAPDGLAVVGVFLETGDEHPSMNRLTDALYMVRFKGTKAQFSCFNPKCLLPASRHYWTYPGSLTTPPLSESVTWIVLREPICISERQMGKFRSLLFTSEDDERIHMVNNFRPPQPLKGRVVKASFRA

Row | Compound | Ki (Carbonic anhydrase 6) | Ki (Carbonic anhydrase 9) | Ki (Carbonic anhydrase 7) | Ki (Carbonic anhydrase 14) | Ki (Carbonic anhydrase 1) | Ki (Carbonic anhydrase 3) | Ki (Carbonic anhydrase 12) | Ki [1] | Ki [2] | Ki (Carbonic anhydrase 13) | Ki (Carbonic anhydrase 4)
1 | NS(=O)(=O)Oc1ccc2c3c(c(=O)oc2c1)CCCCC3 [IROSUSTAT] | 653 nM | 34 nM | 23 nM | 755 nM | 3450 nM | 700000 nM | 12 nM | 720 nM | 765 nM | 1050 nM | 24 nM
2 | NS(=O)(=O)Oc1ccc2c(c1)S(=O)(=O)C(CC1CCCCCC1)=C2 | 654 nM | 18 nM | – | 13 nM | 3600 nM | 740000 nM | 13 nM | 18 nM | 682 nM | 66 nM | 842 nM
